Patent publication US20120041035A1, “LEVAMLODIPINE COMPOUND PHARMACEUTICAL COMPOSITION” (SHIHUIDA PHARMACEUTICALS GROUP (JILIN) LTD, priority 2010, published 2012)

Tested on: primary hypertension patients (systolic pressure ≧160 mmHg)
Experiment: Clinical use in primary hypertension patients, 8-week treatment
Assay type: in vivo, human
Details: after 8-week treatment, levamlodipine 5.0 mg/d, chlorthalidone 25.0 mg/d; for Edema Incidence / Hypokalemia Incidence: combined 2.5 mg/d and 12.5 mg/d; for Decrease of Systolic Pressure: combined levamlodipine 2.5 mg/d and chlorthalidone 12.5 mg/d, 30 patients each
Method: The selected primary hypertension patients (with a systolic pressure ≧160 mmHg) were divided into 3 groups of 30 patients each, the levamlodipine group was given levamlodipine at 5.0 mg/d; the chlorthalidone group was given chlorthalidone at 25.0 mg/d; and the combined administration group was given levamlodipine at 2.5 mg/d and chlorthalidone at 12.5 mg/d. After 8-week treatment, the decease of the systolic pressure, the edema incidence, and the hypokalemia incidence were observed.

| Structure (SMILES) | Edema Incidence [%] | Hypokalemia Incidence [%] | Decrease of Systolic Pressure [mmHg] |
| --- | --- | --- | --- |
| NS(=O)(=O)c1cc(C2(O)NC(=O)c3ccccc32)ccc1Cl (stereo not drawn) [Chlorthalidone, 5(2,3-dihydro-1-hydroxy-3-oxo-1H-isoindol-1-yl)-2-chlorobenzenesulfonamide] | 0 | 20.3 | 20.5 ± 8.5 |
| CCOC(=O)C1=C(COCCN)NC(C)=C(C(=O)OC)[C@@H]1c1ccccc1Cl [Levamlodipine, 3-ethyl-5-methyl-2-(2-aminoethoxymethyl)-4-(2-chlorophenyl)-1,4-dihydro-6-methyl-3,5-pyridine dicarboxylate] | 10 | 0 | 22.7 ± 7.8 |
